Experimental data from DBAASP.
In brackets after ≈: the same amount, converted by molar mass. Values belong to the compound of their own block, whether it stands above or below them.

Experiments:
Test in all cases: ≥ marks a high value that may be exact or a test limit, other limits are often not marked, values filed in µg/mL are converted to µM
[1] = system: Candida albicans ATCC 10231
[2] = system: Escherichia coli ATCC 25922
[3] = system: Staphylococcus aureus ATCC 25923
[4] = system: Pseudomonas aeruginosa ATCC 9027
[5] = system: Enterococcus faecalis PCM 2673
[6] = system: Bacillus subtilis DSM 347
[7] = system: Escherichia coli DSM 1116
[8] = system: Staphylococcus xylosus DSM 20287
[9] = system: Franconibacter helveticus DSM 18390
Candida albicans MDM8 = system: Candida albicans MDM8
[10] = system: Acinetobacter baumannii ATCC 17978
[11] = system: Pseudomonas aeruginosa PAO1
[12] = system: Candida tropicalis IOC 4560
[13] = system: Staphylococcus aureus USA 300
[14] = system: Pseudomonas aeruginosa NCTC 13437
Escherichia coli SBS 363 = system: Escherichia coli SBS 363
[15] = system: Staphylococcus aureus ATCC 29213
[16] = system: Klebsiella pneumoniae NCTC 13368
[17] = system: Bacillus megaterium ATCC 10778
Micrococcus luteus A270 = system: Micrococcus luteus A270
[18] = system: Escherichia coli NCTC 12923
[19] = system: Enterobacter cloacae beta-12
[20] = system: Pseudomonas aeruginosa NCIB 10421
[21] = system: Serratia marcescens ATCC 4112
[22] = system: Staphylococcus aureus ATCC 9144
[23] = system: Bacillus subtilis ATCC 6633
[24] = system: Salmonella enterica subsp. enterica serovar Typhimurium C77-31
[25] = system: Staphylococcus epidermidis ATCC 12228
[26] = system: Salmonella enterica subsp. enterica serovar Typhimurium ATCC 14028
Escherichia coli UB1005 = system: Escherichia coli UB1005
[27] = system: Salmonella enterica subsp. enterica serovar Pullorum C79-13
[28] = system: Salmonella enterica subsp. enterica serovar Typhi CMCC 50071
[29] = system: Staphylococcus aureus HNCMO 112011
[30] = system: Escherichia coli ATCC 8739
[31] = system: Staphylococcus aureus ATCC 6538
[32] = system: Staphylococcus hominis ATCC 27844
[33] = system: Pseudomonas aeruginosa ATCC 15442
[34] = system: Enterococcus faecalis ATCC 2912
[35] = system: Acinetobacter baumannii ATCC 19606
[36] = system: Pseudomonas aeruginosa ATCC 27853
[37] = system: Listeria ivanovii Li 4pVS2
[38] = system: Candida parapsilosis ATCC 22019
[39] = system: Klebsiella pneumoniae ATCC 13883
[40] = system: Enterococcus faecalis ATCC 29212
[41] = system: Streptococcus pyogenes ATCC 19615
[42] = system: Candida albicans ATCC 90028

SMILES: CC[C@H](C)[C@H](NC(=O)[C@H](CCCCN)NC(=O)[C@H](CCCCN)NC(=O)[C@@H](NC(=O)[C@@H](NC(=O)[C@H](CC(=O)O)NC(=O)[C@H](Cc1ccccc1)NC(=O)[C@H](C)NC(=O)CN)[C@@H](C)CC)[C@@H](C)CC)C(=O)N[C@@H](C)C(=O)N[C@@H](CCC(=O)O)C(=O)N[C@@H](CO)C(=O)N[C@@H](Cc1ccccc1)C(N)=O [GAFDIIKKIAESF]
MIC [1]: 178 µM (≈ 256 µg/mL) | MIC [2]: 178 µM (≈ 256 µg/mL) | MIC [3]: > 356 µM | MIC [4]: 356 µM (≈ 512 µg/mL) | MIC [5]: ≥ 356 µM

SMILES: CC[C@H](C)[C@H](N)C(=O)N[C@@H](C)C(=O)NCC(=O)N[C@@H](CCCCN)C(=O)N[C@H](C(=O)N[C@@H](C)C(=O)N[C@@H](CCCCN)C(=O)N[C@H](C(=O)N[C@@H](C)C(=O)NCC(=O)N[C@@H](CCCCN)C(=O)N[C@H](C(=O)N[C@@H](C)C(=O)N[C@@H](CCCCN)C(=O)N[C@H](C(=O)N[C@@H](C)C(=O)NCC(=O)N[C@@H](CCCCN)C(=O)N[C@H](C(=O)N[C@@H](C)C(N)=O)[C@@H](C)CC)[C@@H](C)CC)[C@@H](C)CC)[C@@H](C)CC)[C@@H](C)CC [IAGKIAKIAGKIAKIAGKIA]
MIC [6]: 1.46 µM (≈ 2.83 µg/mL) | MIC [7]: 4.13 µM (≈ 8 µg/mL) | MIC [8]: 2.07 µM (≈ 4 µg/mL) | MIC [9]: 2.92 µM (≈ 5.65 µg/mL)

SMILES: CC[C@H](C)[C@H](N)C(=O)N[C@@H](CC(C)C)C(=O)N[C@@H](CCCCN)C(=O)N[C@@H](CCCCN)C(=O)N[C@H](C(=O)N[C@@H](Cc1c[nH]c2ccccc12)C(=O)N[C@@H](CCC(=O)O)C(=O)NCC(=O)N[C@H](C(=O)N[C@@H](CCCCN)C(=O)N[C@@H](CO)C(=O)N[C@@H](CC(C)C)C(=O)N[C@@H](Cc1ccccc1)C(N)=O)[C@@H](C)CC)[C@@H](C)CC [ILKKIWEGIKSLF]
MIC (Candida albicans MDM8): 1.56 µM (≈ 2.46 µg/mL) | MIC [10]: 2.54 µM (≈ 4 µg/mL) | MIC [11]: > 81.3 µM | MIC [12]: 0.78 µM (≈ 1.23 µg/mL) | MIC [13]: 10.2 µM (≈ 16 µg/mL) | MIC [14]: ≥ 40.6 µM | MIC (Escherichia coli SBS 363): 0.78 µM (≈ 1.23 µg/mL) | MIC [15]: 1.56 µM (≈ 2.46 µg/mL) | MIC [16]: 10.2 µM (≈ 16 µg/mL) | MIC [17]: 0.78 µM (≈ 1.23 µg/mL) | MIC (Micrococcus luteus A270): 0.78 µM (≈ 1.23 µg/mL) | MIC [18]: 5.08 µM (≈ 8 µg/mL) | MIC [19]: 3.13 µM (≈ 4.93 µg/mL) | MIC [20]: 6.25 µM (≈ 9.84 µg/mL) | MIC [21]: 0.36 µM (≈ 0.567 µg/mL) | MIC [22]: 5.08 µM (≈ 8 µg/mL) | MIC [23]: 0.78 µM (≈ 1.23 µg/mL)

Now from value to compound:

MIC [24]: ≥ 128 µM | MIC [25]: > 128 µM | MIC [26]: > 128 µM | MIC [15]: > 128 µM | MIC [3]: 128 µM (≈ 205 µg/mL) | MIC (Escherichia coli UB1005): ≥ 128 µM | MIC [27]: ≥ 128 µM | MIC [28]: ≥ 128 µM
SMILES: CSCC[C@H](NC(=O)[C@H](CCCN=C(N)N)NC(=O)[C@H](Cc1c[nH]c2ccccc12)NC(=O)[C@H](CCC(N)=O)NC(=O)[C@H](Cc1c[nH]c2ccccc12)NC(=O)[C@H](CCCN=C(N)N)NC(=O)[C@H](CCCN=C(N)N)NC(=O)[C@H](CS)NC(=O)[C@@H](N)CCCCN)C(=O)N[C@@H](CCCCN)C(=O)N[C@@H](CCCCN)C(N)=O [KCRRWQWRMKK]

MIC [29]: 25 µM (≈ 40.9 µg/mL) | MIC [10]: 25 µM (≈ 40.9 µg/mL) | MIC [30]: 25 µM (≈ 40.9 µg/mL)
SMILES: CC(C)C[C@H](NC(=O)[C@@H]1CCCN1C(=O)[C@H](CCCN=C(N)N)NC(=O)[C@H](CCCN=C(N)N)NC(=O)[C@H](CS)NC(=O)[C@H](CCC(N)=O)NC(=O)[C@@H](N)CCC(N)=O)C(=O)N[C@@H](Cc1ccc(O)cc1)C(=O)N[C@@H](CS)C(=O)N[C@@H](CCCN=C(N)N)C(=O)N[C@@H](CCCN=C(N)N)C(=O)N[C@@H](CCCN=C(N)N)C(=O)O [QQCRRPLYCRRR]

MIC [31]: 3.2 µM (≈ 4.65 µg/mL) | MIC [1]: 3.2 µM (≈ 4.65 µg/mL) | MIC [32]: ≥ 40 µM | MIC [2]: 13 µM (≈ 18.9 µg/mL) | MIC [33]: 13 µM (≈ 18.9 µg/mL) | MIC [34]: ≥ 40 µM
SMILES: CSCC[C@H](NC(=O)[C@H](CCC(N)=O)NC(=O)[C@H](CO)NC(=O)CNC(=O)[C@H](CCCCN)NC(=O)[C@@H](N)CCCN=C(N)N)C(=O)NCC(=O)N[C@@H](CCCCN)C(=O)N[C@@H](CCCCN)C(=O)N[C@@H](CS)C(=O)N[C@@H](CCC(=O)O)C(=O)N[C@@H](CS)C(=O)N1CCC[C@H]1C(=O)O [RKGSQMGKKCECP]

MIC [35]: 6.25 µM (≈ 16.5 µg/mL) | MIC [36]: 25 µM (≈ 66.1 µg/mL) | MIC [37]: ≥ 50 µM | MIC [38]: ≥ 50 µM | MIC [39]: ≥ 80 µM | MIC [40]: > 100 µM | MIC [41]: ≥ 50 µM | MIC [42]: ≥ 200 µM | MIC [2]: 6.25 µM (≈ 16.5 µg/mL) | MIC [3]: 100 µM (≈ 264 µg/mL)
SMILES: CC[C@H](C)[C@H](NC(=O)[C@H](CCCN=C(N)N)NC(=O)[C@H](Cc1ccc(O)cc1)NC(=O)CNC(=O)[C@H](Cc1ccc(O)cc1)NC(=O)[C@H](CCCN=C(N)N)NC(=O)[C@H](CC(C)C)NC(=O)[C@H](C)NC(=O)[C@H](CCC(N)=O)NC(=O)[C@H](CCC(=O)O)NC(=O)[C@@H](NC(=O)[C@H](CCC(N)=O)NC(=O)[C@H](CCCN=C(N)N)NC(=O)[C@H](CCSC)NC(=O)[C@H](Cc1ccc(O)cc1)NC(=O)[C@H](CCC(N)=O)NC(=O)[C@@H](N)CCCN=C(N)N)[C@@H](C)CC)C(=O)N[C@@H](CO)C(=O)N[C@@H](CCCN=C(N)N)C(=O)N[C@@H](CCCN=C(N)N)C(N)=O [RQYMRQIEQALRYGYRISRR]
